The source of these data is patent US9480754B2, “Phospholipid ether analogs as cancer-targeting drug vehicles” (Cellectar Biosciences, Inc., priority 2014, dated 2016).

Data set [1] concerns PC-3 cells. In words: 125I-CLR1404 uptake after lipid raft disruption with filipin III. It counts as cell-based. The following applies: PC-3 cells pretreated with 2 μg/ml filipin III 15 min, then 125I-CLR1404 1 h; vs untreated control cells. As for the experimental part:
PC-3 cells were pretreated with either 2 μg/ml filipin III or vehicle for 15 min, then washed and incubated with 2 μCi of ^125I-CLR1404 for 1 h. The media was removed and the cells were washed with phosphate buffered saline containing 0.1% bovine serum albumin, trypsinized, then split into two samples for determination of cell number by DNA content (A280 compared to a cell line specific standard curve) and counts per minute using a Gamma Counter (Perkin Elmer).
This supports the hypothesis that CLR1404 uses lipid rafts as portals of entry into cancer cells.

Data set [2] concerns C6 glioma. Description: Rat C6 glioma model, tissue distribution of NM404. It is filed as in vivo. Conditions: C6 glioma-bearing rats, 24 h after tail vein injection. On the procedure:
Materials and Methods: All animals were housed and handled in accordance with the University of Wisconsin Research Animal Resources Center guidelines. Rat C6 glioma cells were propagated in DMEM medium (Life Technologies, Gaithersburg, Md.) supplemented with 10% heat-inactivated FBS (BioWhittaker, Walkersville, Md.), 100 U/ml penicillin G, […] streptomycin, and 0.01 M HEPES (Life Technologies, Gaithersburg, Md.). Intracranial tumor implantation was performed as described previously. Cohen J D, et al., Intracranial C6 glioma model in adult Wistar-Furth rats. J Neuro Oncol 1990 8(1):95-6. Briefly, 1×10^6 C6 cells were resuspended in […] 1.2% methylcellulose and injected into the frontal lobes of anesthetized female Wistar rats (Harlan, Indianapolis, Ind.). Sham-operated animals received intracranial injections of an equal volume of methylcellulose without tumor cells.
Imaging Studies: Ten days after implantation, the presence of intracranial tumors was confirmed with MRI. […]
NM404 [18-(4-iodophenyl)-octadecylphosphocholine] […] In addition, normal brain, blood, kidney, liver, spleen, thyroid, and tumor tissues were weighed, and radioactivity counted in a gamma counter. The tissue distribution of radioactivity was then correlated to brain histology.

The test system of data set [3] is MDA-MB-468, NCI-H1299, NCI-H460, Capan-2, MiaPaCa-1, HT29, HCT116 and PC-3 cancer cell lines. In words: Cell viability, panel of eight cancer cell lines. Conditions: serial concentrations. It counts as cell-based. As for the experimental part:
The cell lines were then measured for cell viability and reported as IC50 for each treatment.
In vivo, free paclitaxel is taken up by cancerous tumor cells at a much lower rate due to the non-specific nature of paclitaxel uptake.

Data set [4] relates to MDA-MB-468 cells. Description: Annexin V/PI flow cytometry, MDA-MB-468. It is filed as cell-based. On the procedure: (§1) Debris was eliminated from this analysis.
MDA-MB-468 cells, were also treated with CLR conjugates (CLR1606 and CLR1607) for 72 hours and with geldanamycin (“GEL”) for 48 hours.
(§2) CLR conjugates appear to require a longer treatment period with cells to induce cell death.
On the technique in general: In flow cytometry, cells or beads pass a laser one at a time.

In data set [5] the test system is MDA-MB-468 cells. In words: Annexin V/PI flow cytometry, MDA-MB-468. It is filed as cell-based. Conditions: MDA-MB-468, 1 uM, 48 hrs.
Data set [6] deals with COLO 829 cells. Description: Annexin V/PI flow cytometry, COLO 829. It counts as cell-based. On the procedure: as §1
COLO 829 cells, a melanoma cell line, were treated with […] (CLR1606 and CLR1607) for 72 hrs and GEL for 48 hours.
as §2

Data set [7] concerns PANC-1 cells. In words: Annexin V/PI flow cytometry, PANC-1. It counts as cell-based. Conditions: table title 72 hours, GEL for 48 hours. On the procedure: as §1
PANC-1 cells, a pancreatic cancer cell line, were treated with GEL conjugates (CLR1606 and CLR1607) for 72 hrs and GEL for 48 hours.

Data set [8] has as its system 22RV1 cells. In words: Annexin V/PI flow cytometry, 22RV1. The following applies: table title 72 hours, GEL for 48 hours. It counts as cell-based. As for the experimental part:
as §1
22RV1 cells, a prostate cancer cell line, were treated with GEL conjugates (CLR1606 and CLR1607) for 72 hrs and GEL for 48 hours. Cell viability was 20.3%, 21.3%, 16.0%, 21.9%, 15.7%, 19.4%, and 28.1% after treatment with no drug, 1 μM CLR1606, 10 μM CLR1606, 1 μM CLR1607, 10 μM CLR1607, 100 nM GEL, and 1 μM GEL, respectively.

Data set [9] concerns cancer cell lines (renal, ovarian, pancreatic, melanoma, prostate) vs normal human skin fibroblast. In words: CLR1501 uptake in cancer cell lines vs normal fibroblasts (confocal microscopy). Conditions: 24 hours, 5 or 7.5 μM, in vitro. It counts as cell-based. An excerpt: Human cancer cell lines were purchased from the American Type Culture Collection (ATCC). They included the following: Caki-2 (renal; clear cell carcinoma), HCT-116 (colorectal carcinoma); MES-SA/Dx5 (uterine sarcoma) [all maintained in McCoy's 5a medium supplemented with 10% fetal bovine serum (FBS)], Ovcar-3 (ovarian adenocarcinoma) [maintained in RPMI medium supplemented with 20% FBS], U87-MG (glioma) [maintained in minimum essential medium supplemented with 10% FBS], Mia Paca-2 (pancreatic carcinoma) (maintained in Dulbecco's modified Eagle's medium supplemented with 10% FBS), PC-3 (prostate carcinoma) (maintained in F-12K medium supplemented with 10% FBS), MDA-MB-231 (triple-negative mammary gland adenocarcinoma) (maintained in Leibovitz's medium supplemented with 10% FBS), and A549 (non-small cell lung carcinoma) (maintained in F-12 medium supplemented with 10% FBS). Normal human skin fibroblasts were purchased from ATCC and grown in Fibroblast Basal Medium PCS-201-030 supplemented with serum-free kit (Fibroblast Growth Kit-Serum-Free PCS-201-040). […]
All cells were maintained at 37° C. in appropriate medium supplemented with 10% FBS and 5% CO2. […] The emission signal of CLR1501 was detected using Alexa Fluor 488 filters (ex/em 480/520 nm). […]

Data set [10] has as its system human glioblastoma stemlike cells and serum-cultured human glioblastoma cells. The following applies: Weichert 2014, FIG. 2; cited from earlier work.
Setting [11] is: MDA-MB-468, 1 uM, 72 hrs (Table 3).

Regarding `C[N+](C)(C)CCOP(=O)([O-])OCCCCCCCCCCCCCCCCCCc1ccc(I)cc1` [NM404, 18-(4-iodophenyl)-octadecylphosphocholine], the “reduction of uptake when lipid rafts are disrupted” value in [1] is approximately 40%. Besides, the “Tumor to brain ratio (% injected dose/g)” value in data set [2] worked out at 10.5.

Turning to `CC(=O)O[C@H]1C(=O)[C@@]2(C)[C@H]([C@H](OC(=O)c3ccccc3)[C@]3(O)C[C@H](OC(=O)[C@H](OC(=O)OCCCCC(=O)Nc4ccc(CCCCCCCCCCCCCCCCCCOP(=O)([O-])OCC[N+](C)(C)C)cc4)[C@@H](NC(=O)c4ccccc4)c4ccccc4)C(C)=C1C3(C)C)[C@]1(OC(C)=O)CO[C@@H]1C[C@@H]2O` [CLR1603], the “ability to reduce cancer cell line viability” value in [3] is on record as “capable of reducing cell viability”. Also, in [4] (setting [11]), the Live is given as 22.2 % of total cells and the Necrotic is reported as 22 % of total cells. Moreover, the Live in data set [4] (MDA-MB-468, 5 uM, 72 hrs) is 19.7 % of total cells. In addition, in [5], the “Early Apoptotic” value is given as 1.4 % of total cells and the Live is listed as 81.4 % of total cells.

Take `CC(=O)O[C@H]1C(=O)[C@]2(C)[C@@H](OC(=O)NCCCC(=O)Nc3ccc(CCCCCCCCCCCCCCCCCCOP(=O)([O-])OCC[N+](C)(C)C)cc3)C[C@H]3OC[C@@]3(OC(C)=O)[C@H]2[C@H](OC(=O)c2ccccc2)[C@]2(O)C[C@H](OC(=O)[C@H](O)[C@@H](NC(=O)c3ccccc3)c3ccccc3)C(C)=C1C2(C)C` [CLR1602]: the “ability to reduce cancer cell line viability” value in [3] is “not capable of significantly reducing cancer cell line viability”.

Take `CC(=O)O[C@H]1C(=O)[C@@]2(C)[C@H]([C@H](OC(=O)c3ccccc3)[C@]3(O)C[C@H](OC(=O)[C@H](OC(=O)CCCC(=O)Nc4ccc(CCCCCCCCCCCCCCCCCCOP(=O)([O-])OCC[N+](C)(C)C)cc4)[C@@H](NC(=O)c4ccccc4)c4ccccc4)C(C)=C1C3(C)C)[C@]1(OC(C)=O)CO[C@@H]1C[C@@H]2O` [CLR1601]: the “ability to reduce cancer cell line viability” value in data set [3] was “capable of reducing cell viability”. Moreover, in data set [4] (setting [11]), the “Early Apoptotic” value is 9.83 % of total cells and the Live was 17 % of total cells. The Live in data set [4] (MDA-MB-468, 5 uM, 72 hrs) is given as 17.8 % of total cells. Besides, in data set [5], the “Late Apoptotic” value is 6 % of total cells and the Live is on record as 79.4 % of total cells.

For the compound `COC1=C2C[C@@H](C)C[C@H](OC)[C@H](O)[C@@H](C)/C=C(\C)[C@H](OC(N)=O)[C@@H](OC)/C=C\C=C(/C)C(=O)NC(=CC1=O)C2=O` [GEL, geldanamycin], the Live in [4] (MDA-MB-468, GEL 1 uM, table title 72 hours, text: geldanamycin for 48 hours) was 26.2 % of total cells; in data set [6] (COLO 829, 100 nM, 48 hrs (Table 9)), 36.1 % of total cells; in data set [6] (COLO 829, 1 uM, 48 hrs (Table 9)) it was 24.6 % of total cells; in [6] (COLO 829, GEL 100 nM, Table 5 title 72 hours, GEL for 48 hours) it was 32.4 % of total cells; in data set [6] (COLO 829, GEL 1 uM, Table 5 title 72 hours, GEL for 48 hours), 18.6 % of total cells; in data set [7] (PANC-1, GEL 100 nM), 23.3 % of total cells. The Live is reported as 18.9 % of total cells in data set [7] (PANC-1, GEL 1 uM); 19.4 % of total cells in [8] (22RV1, GEL 100 nM); 28.1 % of total cells in [8] (22RV1, GEL 1 uM).

For the compound `C[N+](C)(C)CCOP(=O)([O-])OCCCCCCCCCCCCCCCCCCc1ccc(C2=C3C=CC=[N+]3[B-](F)(F)n3cccc32)cc1` [CLR1501], in data set [9], the “preferential uptake in cancer cell lines compared to normal fibroblasts” value is recorded as “five to nine-fold”. Further, the “uptake compared to normal human astrocytes and fetal human neural stem cells” value in data set [10] is “enhanced uptake”.
